Measurements from the CheMixHub viscosity set.

Experiment: xn = mol fraction of the nth substance listed

O=C1CCCC1 + CCCO
303.15 K, 101 kPa
Conditions | viscosity [mPa·s]
x1 = 0.1001 | 1.333
x1 = 0.2566 | 1.091
x1 = 0.4203 | 0.974
x1 = 0.5821 | 0.922
x1 = 0.7382 | 0.915
x1 = 0.8967 | 0.935

CC(C)Br + CCO
viscosity [mPa·s], 101 kPa
Conditions | x1 = 0.1 | x1 = 0.2 | x1 = 0.3 | x1 = 0.4 | x1 = 0.5 | x1 = 0.6 | x1 = 0.7 | x1 = 0.8 | x1 = 0.9
298.15 K | 0.9584 | 0.8399 | 0.7419 | 0.6681 | 0.601 | 0.546 | 0.505 | 0.4811 | 0.4782
303.15 K | 0.8856 | 0.7784 | 0.6899 | 0.6233 | 0.5616 | 0.5172 | 0.4819 | 0.4653 | 0.4647
308.15 K | 0.8081 | 0.711 | 0.6407 | 0.5773 | 0.5251 | 0.4875 | 0.4624 | 0.4474 | 0.4513
313.15 K | 0.7913 | 0.7008 | 0.6327 | 0.5668 | 0.5161 | 0.4739 | 0.4489 | 0.4352 | 0.4285
318.15 K | 0.7206 | 0.644 | 0.5803 | 0.5262 | 0.4829 | 0.4499 | 0.4268 | 0.4152 | 0.4137

CC(O)CO (stereo not given) + CCO
Conditions | viscosity [mPa·s]
298.15 K, 101 kPa, x1 = 0.1 | 1.55
298.15 K, 101 kPa, x1 = 0.2 | 2.215
298.15 K, 101 kPa, x1 = 0.3 | 3.185
298.15 K, 101 kPa, x1 = 0.4 | 4.612
298.15 K, 101 kPa, x1 = 0.5 | 6.698
298.15 K, 101 kPa, x1 = 0.6 | 9.706
298.15 K, 101 kPa, x1 = 0.7 | 14.06
298.15 K, 101 kPa, x1 = 0.8 | 20.27
298.15 K, 101 kPa, x1 = 0.9 | 30.07
303 K, 100 kPa, x1 = 0.6 | 6.734
308 K, 100 kPa, x1 = 0.6 | 5.729
308.15 K, 101 kPa, x1 = 0.1 | 1.24
308.15 K, 101 kPa, x1 = 0.2 | 1.719
308.15 K, 101 kPa, x1 = 0.3 | 2.409
308.15 K, 101 kPa, x1 = 0.4 | 3.377
308.15 K, 101 kPa, x1 = 0.5 | 4.699
308.15 K, 101 kPa, x1 = 0.6 | 6.604
308.15 K, 101 kPa, x1 = 0.7 | 9.261
308.15 K, 101 kPa, x1 = 0.8 | 12.96
308.15 K, 101 kPa, x1 = 0.9 | 18.15
313 K, 100 kPa, x1 = 0.6 | 5.069
318 K, 100 kPa, x1 = 0.6 | 4.427
318.15 K, 101 kPa, x1 = 0.1 | 0.9282
318.15 K, 101 kPa, x1 = 0.2 | 1.317
318.15 K, 101 kPa, x1 = 0.3 | 1.854
318.15 K, 101 kPa, x1 = 0.4 | 2.576
318.15 K, 101 kPa, x1 = 0.5 | 3.527
318.15 K, 101 kPa, x1 = 0.6 | 4.797
318.15 K, 101 kPa, x1 = 0.7 | 6.46
318.15 K, 101 kPa, x1 = 0.8 | 8.621
318.15 K, 101 kPa, x1 = 0.9 | 11.43

ClC=C(Cl)Cl + CCO
viscosity [mPa·s], 101.33 kPa
Conditions | x2 = 0.15 | x2 = 0.3 | x2 = 0.45 | x2 = 0.6 | x2 = 0.75 | x2 = 0.9
293.15 K | 0.6368 | 0.7027 | 0.7685 | 0.8344 | 0.9003 | 0.9601
303.15 K | 0.59 | 0.6477 | 0.7071 | 0.765 | 0.8177 | 0.8581
313.15 K | 0.521 | 0.569 | 0.6186 | 0.6692 | 0.7193 | 0.7593
